Assay [1] has as its system cardiac myocytes. Nature of the assay: Protection of cardiac myocytes from 9 hours of hypoxia by peptides, cell viability assay. It counts as cell-based, rat. As to conditions: after 9 hours of hypoxia; peptide introduced by saponin permeabilization; average of two experiments. As to the method:
(§1) Primary cell cultures were prepared as previously described (Disatnik, et al., 1994). Briefly, ventricles from day-old Sprague-Dawley rats were minced, and single isolated myocytes were obtained by alternating cycles of room temperature trypsinization and mechanical dissociation. Cells were washed and preplated in medium 199 with Hanks' salt solution (Gibco/BRL Life Technologies, Gaithersburg, Md.) containing 10% fetal bovine serum (Hyclone Laboratories, Inc., Logan, Utah) to reduce the number of contaminating non-myocardial cells (NMCs). After 30 minutes nonattached cardiac myocytes were collected and replated at a density of 800 cells per mm^2 into 8-well glass chamber slides (Nunc, Naperville, Ill.) for cell viability assays and immunofluorescence staining, into 6-well plastic culture plates (Fisher Scientific, Pittsburgh, Pa.) for lactate dehydrogenase (LDH) assays, or into 100 mm glass culture dishes for Western blot analyses. […]
(§2) Following treatment of cardiac myocytes grown on 8-well chamber slides, living and dead cells were distinguished using the "EUKOLIGHT" Viability/Cytotoxicity assay (Molecular Probes, Eugene, Oreg.). […] The number of viable (green fluorescent by calcine) and non-viable (red fluorescent by ethidium) cardiac myocytes present in 10-20 random microscopic fields per condition per experiment was recorded. […]

Another assay concerns βPKC. Nature of the assay: Western blot of PMA-induced PKC translocation from cell soluble to particulate fraction. It is filed as cell-based, rat. Conditions: 10 nM PMA for 10 minutes, cardiac myocytes. The protocol:
(§3) Briefly, ventricles from day-old Sprague-Dawley rats were minced, and single isolated myocytes were obtained by alternating cycles of room temperature trypsinization and mechanical dissociation. […] After 30 minutes nonattached cardiac myocytes were collected and replated at a density of 800 cells per mm^2 into 8-well glass chamber slides (Nunc, Naperville, Ill.) for cell viability assays and immunofluorescence staining, into 6-well plastic culture plates (Fisher Scientific, Pittsburgh, Pa.) for lactate dehydrogenase (LDH) assays, or into 100 mm glass culture dishes for Western blot analyses. […] Experiments were conducted on culture days 6-8.
(§4) Following treatment, medium from one plate was removed, and cells were washed twice with ice-cold phosphate-buffered saline (PBS). 1.5 ml of chilled homogenization buffer consisting of 10 mM Tris-HCl pH 7.4, 1 mM EDTA, 1 mM EGTA, 0.25 M sucrose, and […] each of phenylmethylsulfonyl fluoride, soybean trypsin inhibitor, leupeptin, and aprotinin was added to each dish. Myocytes were scraped from the plates and triturated 3 times with a tuberculin syringe attached to a 22-gauge needle. […] Supernatants were concentrated to a volume of […] with a Centricon 30 filtration unit (Amicon, Beverly, Mass.).

The subject of assay [2] is cardiac myocytes. The assay can be described thus: PMA-induced protection of cardiac myocytes from prolonged hypoxia, cell viability assay. It is filed as cell-based, rat. Conditions: 10 nM PMA for 10 minutes, washed, then 9 hours of hypoxia. The protocol: as §1, §2
In assay [3] the target is T1, εPKC (Rattus norvegicus, UniProt P09216).
T1 construct: Western Blot of cardiac myocyte soluble and particulate fractions; endogenous in cells; host or cells: primary neonatal Sprague-Dawley rat ventricular myocytes
T1 sequence (P09216 1-737): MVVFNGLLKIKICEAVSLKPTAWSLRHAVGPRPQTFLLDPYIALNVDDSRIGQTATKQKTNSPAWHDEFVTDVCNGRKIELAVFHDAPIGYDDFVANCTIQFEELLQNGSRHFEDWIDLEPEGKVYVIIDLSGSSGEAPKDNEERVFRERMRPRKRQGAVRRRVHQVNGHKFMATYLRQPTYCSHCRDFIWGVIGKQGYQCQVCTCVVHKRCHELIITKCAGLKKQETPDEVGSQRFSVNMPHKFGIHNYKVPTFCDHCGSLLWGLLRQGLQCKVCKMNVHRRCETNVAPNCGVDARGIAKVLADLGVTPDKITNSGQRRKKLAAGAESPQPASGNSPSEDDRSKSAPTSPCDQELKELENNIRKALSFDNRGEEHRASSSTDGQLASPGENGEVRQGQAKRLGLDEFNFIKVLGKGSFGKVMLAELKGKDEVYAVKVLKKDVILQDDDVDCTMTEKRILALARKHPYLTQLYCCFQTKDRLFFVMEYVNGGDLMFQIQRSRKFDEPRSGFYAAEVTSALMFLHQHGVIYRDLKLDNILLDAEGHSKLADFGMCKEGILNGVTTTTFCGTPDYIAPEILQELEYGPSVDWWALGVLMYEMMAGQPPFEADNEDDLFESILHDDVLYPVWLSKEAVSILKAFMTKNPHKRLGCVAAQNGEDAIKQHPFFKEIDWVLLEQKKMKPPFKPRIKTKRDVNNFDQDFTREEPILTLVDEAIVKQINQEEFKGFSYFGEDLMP
The assay can be described thus: Western blot of PMA-induced PKC translocation from cell soluble to particulate fraction. It is filed as cell-based. As to conditions: 10 nM PMA for 10 minutes, cardiac myocytes. As to the method:
as §3, §4
For orientation: In western blotting, separated proteins are transferred to a membrane and probed.

For a further assay, the target named is T2, δPKC (Rattus norvegicus, UniProt P09215).
T2 construct: Western Blot of cardiac myocyte soluble and particulate fractions; endogenous in cells; host or cells: primary neonatal Sprague-Dawley rat ventricular myocytes
T2 sequence (P09215 whole entry): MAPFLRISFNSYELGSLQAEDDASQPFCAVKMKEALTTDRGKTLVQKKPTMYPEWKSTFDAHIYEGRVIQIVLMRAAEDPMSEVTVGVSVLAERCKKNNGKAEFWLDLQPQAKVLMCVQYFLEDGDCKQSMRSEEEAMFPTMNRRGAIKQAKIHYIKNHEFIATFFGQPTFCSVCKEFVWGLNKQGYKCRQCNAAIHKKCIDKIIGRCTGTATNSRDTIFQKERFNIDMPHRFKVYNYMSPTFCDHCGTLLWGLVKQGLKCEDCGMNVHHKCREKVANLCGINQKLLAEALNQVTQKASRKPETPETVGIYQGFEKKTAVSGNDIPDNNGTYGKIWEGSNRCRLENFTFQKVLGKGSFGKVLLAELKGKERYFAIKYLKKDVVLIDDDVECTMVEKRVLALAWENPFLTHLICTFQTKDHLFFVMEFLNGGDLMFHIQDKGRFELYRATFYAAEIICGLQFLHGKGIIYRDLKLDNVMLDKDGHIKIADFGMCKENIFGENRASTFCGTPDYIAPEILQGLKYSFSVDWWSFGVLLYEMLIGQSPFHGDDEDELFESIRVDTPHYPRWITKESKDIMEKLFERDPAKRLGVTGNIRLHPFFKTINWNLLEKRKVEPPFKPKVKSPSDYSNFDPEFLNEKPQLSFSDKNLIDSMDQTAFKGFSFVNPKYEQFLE
Described as above. As to conditions: 10 nM PMA for 10 minutes, cardiac myocytes. It counts as cell-based. As to the method: Primary cell cultures were prepared as previously described (Disatnik, et al., 1994). Briefly, ventricles from day-old Sprague-Dawley rats were minced, and single isolated myocytes were obtained by alternating cycles of room temperature trypsinization and mechanical dissociation. Cells were washed and preplated in medium 199 with Hanks' salt solution (Gibco/BRL Life Technologies, Gaithersburg, Md.) containing 10% fetal bovine serum (Hyclone Laboratories, Inc., Logan, Utah) to reduce the number of contaminating non-myocardial cells (NMCs). […]
Western blot analyses of cardiac myocytes grown on 100 mm glass dishes were carried out as previously described (Liu, Y., et al., 1995). […] Soluble and particulate fractions were then subjected to 12% SDS-PAGE and transferred to nitrocellulose sheets. βPKC levels were determined using monoclonal anti-βPKC antibodies (Seikagaku Kogyo, Tokyo, Japan) diluted 1:1000 followed by incubation with rabbit anti-mouse IgG antibodies (Cappel, Durham, N.C.), also at 1:1000 dilution. δPKC and εPKC levels were determined using rabbit polyclonal anti-δPKC and anti-εPKC antibodies (Gibco/BRL), each at 1:300 dilution. Western blots were then incubated with ^125 I-protein A (ICN Biomedicals, Inc., Irvine, Calif.), and PKC immunoreactive bands were detected by autoradiography.
The ability of PMA to activate the PKC isozymes αPKC, βPKC, δPKC and εPKC was evaluated. […]

In assay [4] the target is T1, εPKC. The assay can be described thus: Peptide-induced translocation of PKC in cardiac myocytes. It counts as cell-based. Conditions: 10 μg/ml in permeabilization buffer. As to the method: as §1
Immunofluorescence staining of cardiac myocytes grown on 8-well glass chamber slides was carried out as previously described (Hauser, et al., 1993). […] Images were recorded on Kodak TMAX 400 film with exposure time of 1 second for all photomicrographs and were processed by an automated, commercial developer without additional adjustment. […]

Assay [5] has as its target T1, εPKC. Nature of the assay: Effect of isoform-specific inhibitory peptides on PMA-induced PKC translocation, Western blot. It counts as cell-based. As to conditions: peptide introduced by permeabilization, 10 nM PMA for 10 minutes. The protocol: as §3, §4

No end group written: not given here.

As for SLNPEWNET [β pseudo-RACK peptide], the viable cells in the assay on cardiac myocytes [1] amounted to 35%.

Turning to `CCCCCCCCCCCCCC(=O)O[C@@H]1[C@@H](C)[C@@]2(O)[C@@H](C=C(CO)C[C@]3(O)C(=O)C(C)=C[C@@H]23)[C@@H]2C(C)(C)[C@]12OC(C)=O` [PMA, 4β-phorbol 12-myristate 13-acetate], in the assay with βPKC, the “translocation of βPKC from the cell soluble to the cell particulate fraction” value was “minimal translocation”. Besides, in the assay with cardiac myocytes [2], the “increase in the proportion of surviving myocytes versus control” value is 34%. Besides, at εPKC [3], the “translocation of εPKC in response to PMA” value was “robust”. For the same molecule, on δPKC, the “translocation of δPKC in response to PMA” value is given as “robust”.

For the molecule HDAPIGYD [εV1-7], the “cells with translocation of εPKC” value on εPKC [4] is 70%. The same molecule had a viable cells in the assay on cardiac myocytes [1] of 65%.

As for EAVSLKPT [εV1-2], the “reduction in the particulate signal compared with PMA alone (densitometry)” value on εPKC [5] stood at 23%.

(Values after patent publication US6165977A, “Isozyme-specific activators of protein kinase C methods and compositions” (Board of Trustees of the Leland Stanford Junior University, priority 1997, dated 2000).)
